Data as given in a compilation of properties of binary mixtures (doi:10.1021/je800965t).

Test: xn = mol fraction of the nth substance listed
Details: 101 kPa

O + CCCn1cc[n+](C)c1C.F[B-](F)(F)F
x1 = 1
Details	viscosity [mPa·s]
298.15 K	0.89
303.15 K	0.8
313.15 K	0.65
318.15 K	0.6
323.15 K	0.55
333.15 K	0.47
343.15 K	0.4

CCCn1cc[n+](C)c1C.F[B-](F)(F)F + O
viscosity [mPa·s]
Details	x2 = 0	x2 = 0.0939	x2 = 0.1932	x2 = 0.2833	x2 = 0.3944	x2 = 0.4987	x2 = 0.5995	x2 = 0.6985	x2 = 0.8009	x2 = 0.8988
298.15 K	377	225	–	85.3	50.6	31.29	19.71	12.03	6.69	3.23
303.15 K	272	168	–	66.8	–	–	16.21	10.04	5.67	2.78
308.15 K	202	127.9	81.1	–	–	21.07	–	8.53	4.9	2.42
313.15 K	152	99.3	64.5	43.2	27.18	17.63	11.52	7.31	4.23	2.14
318.15 K	117.4	–	–	35.71	22.79	14.97	9.88	6.34	3.71	1.89
323.15 K	92.3	63.3	42.8	29.65	19.32	12.87	8.58	5.55	3.29	1.69
333.15 K	60.4	–	–	21.37	14.38	9.78	–	–	2.62	1.39
343.15 K	40.7	–	21.84	16.02	11.04	7.66	5.3	3.53	2.15	1.16
